#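 GI50 = concentration required for 50% inhibition of growth. TGI marks complete inhibition of growth.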
# How the values were obtained:
# Assay in all cases: inhibition of tumour cell growth, NCI panel, 384-well format
# HCT-15 colon = tested on: HCT-15 colon
# SF-268 CNS = tested on: SF-268 CNS
# MALME-3M melanoma = tested on: MALME-3M melanoma
# PC-3 prostate = tested on: PC-3 prostate
# OVCAR-5 ovarian = tested on: OVCAR-5 ovarian
# EKVX NSCLC = tested on: EKVX NSCLC
# SF-539 CNS = tested on: SF-539 CNS
# LOX IMVI melanoma = tested on: LOX IMVI melanoma
# OVCAR-4 ovarian = tested on: OVCAR-4 ovarian
# SNB-19 CNS = tested on: SNB-19 CNS
# MDA-MB-231 breast = tested on: MDA-MB-231 breast
# HS 578T breast = tested on: HS 578T breast
# SF-295 CNS = tested on: SF-295 CNS
# MDA-MB-435 melanoma = tested on: MDA-MB-435 melanoma
# SK-MEL-5 melanoma = tested on: SK-MEL-5 melanoma
# A498 renal = tested on: A498 renal
# SW-620 colon = tested on: SW-620 colon
# MOLT-4 leukemia = tested on: MOLT-4 leukemia
# SN12C renal = tested on: SN12C renal
# OVCAR-3 ovarian = tested on: OVCAR-3 ovarian
# SK-MEL-2 melanoma = tested on: SK-MEL-2 melanoma
# NCI-H23 lung = tested on: NCI-H23 lung
# SR leukemia = tested on: SR leukemia
# K-562 leukemia = tested on: K-562 leukemia
# HT29 colon = tested on: HT29 colon
# TK-10 renal = tested on: TK-10 renal
# HOP-92 NSCLC = tested on: HOP-92 NSCLC
# MDA-MB-468 breast = tested on: MDA-MB-468 breast
# OVCAR-8 ovarian = tested on: OVCAR-8 ovarian
# SK-OV-3 ovarian = tested on: SK-OV-3 ovarian
# UACC-62 melanoma = tested on: UACC-62 melanoma
# NCI/ADR-RES ovarian = tested on: NCI/ADR-RES ovarian
# UO-31 renal = tested on: UO-31 renal
# BT-549 breast = tested on: BT-549 breast
# A549 NSCLC = tested on: A549 NSCLC
# HL-60(TB) leukemia = tested on: HL-60(TB) leukemia
# IGROV1 ovarian = tested on: IGROV1 ovarian
# RXF 393 renal = tested on: RXF 393 renal
# NCI-H522 lung = tested on: NCI-H522 lung
# CCRF-CEM leukemia = tested on: CCRF-CEM leukemia
# T-47D breast = tested on: T-47D breast
# COLO 205 colon = tested on: COLO 205 colon
# HCC-2998 colon = tested on: HCC-2998 colon
# SNB-75 CNS = tested on: SNB-75 CNS
# HCT-116 colon = tested on: HCT-116 colon
# HOP-62 NSCLC = tested on: HOP-62 NSCLC
# KM12 colon = tested on: KM12 colon
# NCI-H226 lung = tested on: NCI-H226 lung
# DU-145 prostate = tested on: DU-145 prostate
# ACHN renal = tested on: ACHN renal
# NCI-H460 NSCLC = tested on: NCI-H460 NSCLC
# NCI-H322M lung = tested on: NCI-H322M lung
# U251 glioblastoma = tested on: U251 glioblastoma
# RPMI-8226 leukemia = tested on: RPMI-8226 leukemia
# MCF7 breast = tested on: MCF7 breast
# M14 melanoma = tested on: M14 melanoma
# 786-0 renal = tested on: 786-0 renal
# SK-MEL-28 melanoma = tested on: SK-MEL-28 melanoma
# CAKI-1 renal = tested on: CAKI-1 renal
# UACC-257 melanoma = tested on: UACC-257 melanoma
compound,measurement,setting,value
CC[C@H](Nc1ncnc2nc[nH]c12)c1oc2ccccc2c(=O)c1-c1cccc(F)c1,GI50,HCT-15 colon,30.7 µM
same,TGI,HCT-15 colon,99.1 µM
same,GI50,SF-268 CNS,29.8 µM
same,TGI,SF-268 CNS,> 89.4 µM
same,GI50,MALME-3M melanoma,23.6 µM
same,TGI,MALME-3M melanoma,62.8 µM
same,GI50,PC-3 prostate,18.5 µM
same,TGI,PC-3 prostate,52.6 µM
same,GI50,OVCAR-5 ovarian,39.9 µM
same,TGI,OVCAR-5 ovarian,> 100 µM
same,GI50,EKVX NSCLC,23.8 µM
same,TGI,EKVX NSCLC,70.7 µM
same,GI50,SF-539 CNS,45.9 µM
same,TGI,SF-539 CNS,> 100 µM
same,GI50,LOX IMVI melanoma,26.3 µM
same,TGI,LOX IMVI melanoma,82.1 µM
same,GI50,OVCAR-4 ovarian,17.9 µM
same,TGI,OVCAR-4 ovarian,54.2 µM
same,GI50,SNB-19 CNS,37.1 µM
same,TGI,SNB-19 CNS,> 100 µM
same,GI50,MDA-MB-231 breast,26.2 µM
same,TGI,MDA-MB-231 breast,> 100 µM
same,GI50,HS 578T breast,15.1 µM
same,TGI,HS 578T breast,37.2 µM
same,GI50,SF-295 CNS,20.7 µM
same,TGI,SF-295 CNS,> 74.6 µM
same,GI50,MDA-MB-435 melanoma,24.2 µM
same,TGI,MDA-MB-435 melanoma,56.5 µM
same,GI50,SK-MEL-5 melanoma,17.9 µM
same,TGI,SK-MEL-5 melanoma,39.7 µM
same,GI50,A498 renal,27.8 µM
same,TGI,A498 renal,> 100 µM
same,GI50,SW-620 colon,48.7 µM
same,TGI,SW-620 colon,> 81.2 µM
same,GI50,MOLT-4 leukemia,15.8 µM
same,TGI,MOLT-4 leukemia,29.6 µM
same,GI50,SN12C renal,30.5 µM
same,TGI,SN12C renal,98.9 µM
same,GI50,OVCAR-3 ovarian,18.2 µM
same,TGI,OVCAR-3 ovarian,40.8 µM
same,GI50,SK-MEL-2 melanoma,13.7 µM
same,TGI,SK-MEL-2 melanoma,30.1 µM
same,GI50,NCI-H23 lung,23.9 µM
same,TGI,NCI-H23 lung,78.3 µM
same,GI50,SR leukemia,12.4 µM
same,TGI,SR leukemia,25.2 µM
same,GI50,K-562 leukemia,26.5 µM
same,TGI,K-562 leukemia,> 96.6 µM
same,GI50,HT29 colon,32.3 µM
same,TGI,HT29 colon,> 100 µM
same,GI50,TK-10 renal,29.8 µM
same,TGI,TK-10 renal,> 95.2 µM
same,GI50,HOP-92 NSCLC,14.6 µM
same,TGI,HOP-92 NSCLC,39.1 µM
same,GI50,MDA-MB-468 breast,9.6 µM
same,TGI,MDA-MB-468 breast,27.2 µM
same,GI50,OVCAR-8 ovarian,32.6 µM
same,TGI,OVCAR-8 ovarian,> 100 µM
same,GI50,SK-OV-3 ovarian,24.5 µM
same,TGI,SK-OV-3 ovarian,63.8 µM
same,GI50,UACC-62 melanoma,16.3 µM
same,TGI,UACC-62 melanoma,36.8 µM
same,GI50,NCI/ADR-RES ovarian,24 µM
same,TGI,NCI/ADR-RES ovarian,60.4 µM
same,GI50,UO-31 renal,3.16 µM
same,TGI,UO-31 renal,> 100 µM
same,GI50,BT-549 breast,15.5 µM
same,TGI,BT-549 breast,39.5 µM
same,GI50,A549 NSCLC,27.9 µM
same,TGI,A549 NSCLC,> 100 µM
same,GI50,HL-60(TB) leukemia,21.8 µM
same,TGI,HL-60(TB) leukemia,36.6 µM
same,GI50,IGROV1 ovarian,24.1 µM
same,TGI,IGROV1 ovarian,59.2 µM
same,GI50,RXF 393 renal,21.1 µM
same,TGI,RXF 393 renal,> 69.5 µM
same,GI50,NCI-H522 lung,20.6 µM
same,TGI,NCI-H522 lung,47.7 µM
same,GI50,CCRF-CEM leukemia,16.8 µM
same,TGI,CCRF-CEM leukemia,31 µM
same,GI50,T-47D breast,24.4 µM
same,TGI,T-47D breast,> 86.2 µM
same,GI50,COLO 205 colon,42.4 µM
same,TGI,COLO 205 colon,> 100 µM
same,GI50,HCC-2998 colon,32.6 µM
same,TGI,HCC-2998 colon,80 µM
same,GI50,SNB-75 CNS,23.2 µM
same,TGI,SNB-75 CNS,60.7 µM
same,GI50,HCT-116 colon,36.9 µM
same,TGI,HCT-116 colon,> 100 µM
same,GI50,HOP-62 NSCLC,30.1 µM
same,TGI,HOP-62 NSCLC,> 100 µM
same,GI50,KM12 colon,36.8 µM
same,TGI,KM12 colon,> 100 µM
same,GI50,NCI-H226 lung,23.8 µM
same,TGI,NCI-H226 lung,83 µM
same,GI50,DU-145 prostate,29.6 µM
same,TGI,DU-145 prostate,> 100 µM
same,GI50,ACHN renal,23.2 µM
same,TGI,ACHN renal,77.5 µM
same,GI50,NCI-H460 NSCLC,34.7 µM
same,TGI,NCI-H460 NSCLC,> 100 µM
same,GI50,NCI-H322M lung,90.5 µM
same,TGI,NCI-H322M lung,> 100 µM
same,GI50,U251 glioblastoma,31 µM
same,TGI,U251 glioblastoma,> 100 µM
same,GI50,RPMI-8226 leukemia,8.38 µM
same,TGI,RPMI-8226 leukemia,20.5 µM
same,GI50,MCF7 breast,29.6 µM
same,TGI,MCF7 breast,> 87.3 µM
same,GI50,M14 melanoma,37.7 µM
same,TGI,M14 melanoma,> 100 µM
same,GI50,786-0 renal,27.2 µM
same,TGI,786-0 renal,> 95 µM
same,GI50,SK-MEL-28 melanoma,27.7 µM
same,TGI,SK-MEL-28 melanoma,> 86.1 µM
same,GI50,CAKI-1 renal,28.6 µM
same,TGI,CAKI-1 renal,> 100 µM
same,GI50,UACC-257 melanoma,33 µM
same,TGI,UACC-257 melanoma,> 87.9 µM
